Measurements taken from article PMC12621175, “Scaffold Fusion and SAR Transfer with a Chemical Language Model Generates Novel Liver X Receptor Modulators” (Journal of Medicinal Chemistry, 2025).
“Also recorded” adds a separate entry of the source.

Tests used:
HEK293T cells = assay: resazurin-based proliferation assay, HEK293T; assay type: cell-based
Experimental: HepG2 or HEK293T cells were seeded in 96-well plates (4 × 10^4 cells per well). […] After 4, 14, and 24 h, the medium was aspirated, and the cells were incubated with 100 μM resazurin solution in Opti-MEM (prepared from a 0.15 mg/mL resazurin stock in DPBS) for 60 min. The metabolic activity was assessed by conversion of resazurin to resorufin, which was quantified by measuring absorbance at 570 nm and a reference wavelength of 600 nm. The cell count was calculated from a calibration curve with 0–10^5 cells per well in steps of 2 × 10^4.

[1] = tested on: LXR/retinoid X receptor (RXR) heterodimer; assay: full-length LXR assay (LXR-responsive ABCA1 reporter, endogenous LXR) in HEK293T and HepG2 cells; assay type: cell-based; conditions: vs 0.1% DMSO
Text: Intrigued by the initial data on LXR modulation, we further investigated the mode-of-action of designs 1-3. As the Gal4 hybrid reporter gene assay is artificial and overexpresses LXR, we next examined LXR modulation by 1-3 in a full-length LXR assay (Figure a) based on the endogenous expression of the LXR/retinoid X receptor (RXR) heterodimer (Figure S2). Upon activation, LXR binds to response elements within the ATP-binding cassette transporter A1 (ABCA1, an LXR target gene) promoter of the reporter. […] The designs were next checked for antiproliferative effects that may compromise further in vitro characterization. […] Therefore, and due to the weak efficacy of 2, we focused further biological characterization on 1 and 3.
For the hybrid reporter gene assays, the previously reported Gal4-fusion receptor plasmids pFA-CMV-hRORα-LBD, pFA-CMV-hRORβ-LBD, pFA-CMV-hRORγ-LBD, pFA-CMV-hLXRα-LBD, pFA-CMV-hLXRβ-LBD, pFA-CMV-hFXR-LBD, pFA-CMV-hPXR-LBD, and pFA-CMV-hRXRα-LBD, coding for the hinge region, and LBD of the canonical isoform of the respective nuclear receptor were used. pFR-Luc (Stratagene) was used as the reporter plasmid, and pRL-SV40 (Promega) was used in all assays for the normalization of transfection efficiency and cell growth. pECE-SV40-Gal4-VP16 was a gift from Lea Sistonen (Addgene plasmid #71728). The LXR-responsive reporter ABCA1-pGL3 was used for the full-length reporter gene assay.
The day before transfection, HEK293T cells were seeded in 96-well plates (4 × 10^4 cells/well). Before transfection, the medium was changed to Opti-MEM without any supplements. […] Luminescence was measured with a Spark 10 M luminometer (Tecan Deutschland GmbH). […] EC50/IC50 values and the standard errors thereof were calculated with the mean fold activation values by OriginPro, Version 2025 (OriginLab Corporation, Northampton, MA, USA), fitting a dose–response curve with a variable Hill slope (Levenberg–Marquardt algorithm). […]

[2] = metabolic stability assay in rat liver microsomes; assay type: in vitro ADME; conditions: 10 μM
Experimental: The dissolved test compound (5 μL, final concentration 10 μM) was preincubated at 37 °C in 432 μL of phosphate buffer (0.1 M, pH 7.4) together with a 50 μL NADPH regenerating system (30 mM glucose-6-phosphate, 4 U/mL glucose-6-phosphate dehydrogenase, 10 mM NADP, and 30 mM MgCl2). After 5 min, the reaction was started by the addition of 13 μL of microsome mix from the liver of Sprague–Dawley rats (Invitrogen; 20 mg protein/mL in 0.1 M phosphate buffer) in a shaking water bath at 37 °C. The reaction was stopped by the addition of 500 μL of ice-cold methanol at 0, 15, 30, and 60 min. The samples were centrifuged at 5000 g for 5 min at 4 °C. The supernatants were analyzed, and the test compound was quantified by HPLC: The composition of the mobile phase is adapted tot the test compound in a range of 40-90% acetonitrile and 10-60% water (0.1% formic acid); flow rate: 1 mL/min; stationary phase: PurospherⓇ STAR, RP18, 5 μm, 125 × 4, precolumn: PurospherⓇ STAR, RP18, 5 μm, 4 × 4; detection wavelength: 254 and 280 nm; injection volume: 50 μL. […] The amounts of the test compound were quantified by an external calibration curve. Data are expressed as the mean ± SEM remaining compound from three independent experiments.

Row | Structure (SMILES) | antiproliferative effect (HEK293T cells; 10 μM) | LXR modulation in LXR-responsive ABCA1 reporter gene assay ([1]; 3 μM) | metabolic stability [2] | antiproliferative effect (HEK293T cells; 30 μM) | LXR modulation in LXR-responsive ABCA1 reporter gene assay ([1]; 10 μM)
1 | CCN(C(=O)c1ccccc1)c1ccc(C(O)(C(F)(F)F)C(F)(F)F)cc1 [Compound 1, N-Ethyl-N-(4-[1,1,1,3,3,3-hexafluoro-2-hydroxypropan-2-yl]phenyl)benzamide] | did not inhibit the proliferation | partial LXR agonists; also recorded: partial LXR agonism | > 60 min | – | –
2 | CS(=O)(=O)c1cccc(-c2ccc(CN(Cc3cccc(C(F)(F)F)c3Cl)CC(c3ccccc3)c3ccccc3)cc2)c1 [Compound 3, N-(2-Chloro-3-[trifluoromethyl]benzyl)-N-([3′-{methylsulfonyl}-{1,1′-biphenyl}-4-yl]methyl)-2,2-diphenylethan-1-amine] | – | – | > 60 min | did not inhibit the proliferation | robustly blocked LXR activation; also recorded: inverse agonist
